Measured values published in US8623916B2, “Polyunsaturated fatty acid and diol ester as an anti-acne agent” (Pierre Fabre Dermo-Cosmetique, priority 2008, dated 2014).

What was measured:
[1] = test system: Staphylococcus aureus ATCC6538; assay: Kinetics of antibacterial activity (residual CFU count), Staphylococcus aureus; type: cell-based; conditions: S. aureus
From the text: (§1) The kinetics of the antibacterial activity of 1,2-octanediol were studied by evaluating the lethality of the bacteria over time by counting residual colony-forming units (CFUs) after contact of the test solution with the bacterial suspension.
(§2) The bacterial strains used are: Staphylococcus aureus ATCC6538 and Propionibacterium acnes ATCC6919. The culture medium used for Staphylococcus aureus ATCC6538 is Trypcase Soy Agar whereas the culture medium used for Propionibacterium acnes ATCC6919 is Schaedler agar. Stock solutions containing 1% and 0.5% 1,2-octanediol are prepared extemporaneously in 1% Polysorbate 20 (qsp WFI) and then adjusted to pH 7 with 0.1 N NaOH solution.
(§3) A volume of 5 ml of each stock solution is inoculated with 50 μl bacterial suspension titrated at roughly 1×10^8 CFU/ml.
(§4) After each time of contact (contact times tested: 5 min, 15 min, 30 min and 60 min), residual bacteria are counted by taking a 1 ml aliquot neutralized by 9 ml Trypcase Soy Broth and 10% Polysorbate 80.
(§5) Counting is carried out by adding 1 ml neutralized mixture and four 1/10 serial dilutions to the corresponding agar plates.
(§6) The agar plates are incubated at 36° C.±1° C. in aerobic atmosphere for S. aureus and anaerobic atmosphere for P. acnes (Generbag anaer, Biomerieux) for 72 hours and then the CFUs are counted.
(§7) • with R meaning “reduction”. It refers to the ratio between the number of inoculated bacteria and the number of residual bacteria after contact of the test solution with the bacterial suspension.

[2] = test system: Propionibacterium acnes ATCC6919; assay: Kinetics of antibacterial activity (residual CFU count), Propionibacterium acnes; type: cell-based; conditions: for Log R: P. acnes
From the text: as §1, §2, §3, §4, §5, §6, §7

[3] = test system: release of arachidonic acid and eicosanoids by HaCaT keratinocytes; assay: Arachidonic acid metabolism in [3H]AA-labeled HaCaT keratinocytes stimulated by PMA/A23187; type: cell-based, human; conditions: HaCaT pretreated with PUFA 24 h, 500 nM PMA and 1 μM A23187 for 5 hours (FIGS. 4A-4C)
Method: HaCaT keratinocytes were incubated in 24-well plates in the presence of 1 μCi [^3H]AA for 18 hours under an atmosphere of 5% CO2. To test the capacity of
PUFAs to modulate the inflammatory response of keratinocytes, [^3H]-labeled HaCaT cells are pretreated with PUFAs for 24 hours, rinsed and then stimulated by 500 nM PMA and 1 μM A23187 for 5 hours. [^3H]AA and metabolites released by the HaCaT cells in the culture medium are extracted by column chromatography. The eluate is evaporated under N2. The dry residue is taken up in methanol and deposited on thin-layer silica plates activated beforehand for 1 hour at 100° C. The developing solvent is the organic phase of the mixture ethyl acetate/water/isooctane/acetic acid (110:100:50:20, v/v). [^3H]AA and metabolites (6-keto-prostaglandin F1α, 6k-PGF1α; prostaglandin (PG) FαE2D2; thromboxane (TX) B2, leukotrienes (LT) B4, C4, D4) are identified by a Berthold TLC scanner.

P. acnes strain = assay: Antibacterial activity of the diols, MIC micromethod in liquid medium, P. acnes strain; type: cell-based, Propionibacterium acnes
Method: Tests were carried out with eight microbial strains using the dilution method described below.
Minimum inhibitory concentrations (MICs) are determined using a micromethod in liquid medium. Successive 1/2 dilutions of the test products in culture medium (Trypcase Soy Broth) are carried out in 96-well microplates in a final volume of 0.1 ml. The wells are inoculated with 0.01 ml of the bacterial suspensions titrated at roughly 1×10^7 CFU/ml. The microplates are incubated in optimal growth conditions and the MIC is read visually.
The columns labeled “BS” represent the bacteriostatic activity and the columns labeled “BC” represent the bactericidal activity of the diols (1% corresponds to a concentration of 10 mg/ml).

[4] = test system: interleukin 8 release by human HaCaT keratinocytes; conditions: 24 h with PUFA, then PMA/A23187 for 6 h (FIG. 3)
Method: The anti-inflammatory potential of the PUFAs was tested on human keratinocytes (HaCaT) stimulated by PMA/A23187. The changes induced by these PUFAs are evaluated on the production of eicosanoids and an inflammatory cytokine, interleukin 8, during an inflammatory process triggered by PMA/A23187. HaCaT cells are incubated on 96-well plates for 24 h in the presence of PUFAs, rinsed and then stimulated by PMA/A23187. The supernatants are recovered after 6 h of stimulation and IL-8 is quantified using the OptEIA™ ELISA kit (BD Pharmingen).

## CCCCCCC(O)CO (stereo not drawn) [1,2-octanediol]
[1]; 0.5%, pH 7, contact 5 min
  Log R: 0.4
[1]; 0.5%, pH 7, contact 15 min
  Log R: 0.1
[1]; 0.5%, pH 7, contact 30 min
  Log R: 0.2
[1]; 0.5%, pH 7, contact 60 min
  Log R: 0.5
[1]; 1%, pH 7, contact 5 min
  Log R: >5.3
[1]; 1%, pH 7, contact 15 min
  Log R: >5.3
[1]; 1%, pH 7, contact 30 min
  Log R: >5.3
[1]; 1%, pH 7, contact 60 min
  Log R: >5.3
[2]; 0.5%, physiological pH, one hour of contact
  decrease of the population of P. acnes: greater than 99.9%
[2]; 0.5%, pH 7, contact 5 min
  Log R: 0.2
[2]; 0.5%, pH 7, contact 15 min
  Log R: 0.7
[2]; 0.5%, pH 7, contact 30 min
  Log R: 1.8
[2]; 0.5%, pH 7, contact 60 min
  Log R: 3
[2]; 1%, pH 7, contact 5 min
  Log R: >5
[2]; 1%, pH 7, contact 15 min
  Log R: >5
[2]; 1%, pH 7, contact 30 min
  Log R: >5
[2]; 1%, pH 7, contact 60 min
  Log R: >5

## CCCCC/C=C\C/C=C\CCCCCCCC(=O)O [linoleic acid]
[3]
  release of arachidonic acid: significantly inhibits
  release of cyclooxygenated metabolites: significantly inhibits
  release of lipoxygenated metabolites: significantly inhibits

## CCCCCCC(O)CCO (stereo not drawn) [1,3-nonanediol]
P. acnes strain
  bactericidal effect concentration (BC): 3.12 mg/mL
  bacteriostatic effect concentration (BS): 1.56 mg/mL

## CCCCC/C=C\C/C=C\C/C=C\CCCCC(=O)O [γ-linolenic acid]
[4]
  effect on IL-8 secretion of stimulated keratinocytes: inhibitory effect

## CC/C=C\C/C=C\C/C=C\CCCCCCCC(=O)O [α-linolenic acid]
[4]
  effect on IL-8 secretion of stimulated keratinocytes: inhibitory effect
[3]
  release of arachidonic acid: significantly inhibits
  release of cyclooxygenated metabolites: significantly inhibits
  release of lipoxygenated metabolites: significantly inhibits

## CC/C=C\C/C=C\C/C=C\C/C=C\CCCCC(=O)O [stearidonic acid]
[3]
  release of arachidonic acid: significantly inhibits
  release of cyclooxygenated metabolites: significantly inhibits
  release of lipoxygenated metabolites: significantly inhibits
